Measurements: ChEMBL document CHEMBL1201862, “PubChem BioAssay data set” (2004)
Where a name gives a salt, the structure may show the parent alone. Active and inactive are the calls of the source.

What was measured:
[1] = biological target: 5-hydroxytryptamine receptor 1A (Homo sapiens, UniProt P08908); assay type: functional
[2] = biological target: Exodeoxyribonuclease V (Escherichia coli (strain K12), UniProt P04993+P07648+P08394); test: E. coli RecBCD inhibitors, dose response, counter-screen for AddAB inhibitor project, absorbance, V66 E. coli, mutant T4 phage (AID 492957); assay type: functional, cell-based, Escherichia coli str. K-12 substr. MG1655
[3] = Counterscreen for AddAB inhibitors: absorbance-based bacterial cell-based high throughput dose response assay for inhibitors of bacterial viability. [Related pubchem assays (depositor defined):AID435030, AID449728, AID449731, AID488942, AID488955, AID488956]; assay type: functional
[4] = biological target: Voltage-gated inwardly rectifying potassium channel KCNH2 (Homo sapiens, UniProt Q12809); conditions: Potency;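 further: confirmatory quantitative high-throughput screen measuring inhibition of hERG channel activity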
Chain of Voltage-gated inwardly rectifying potassium channel KCNH2 (Q12809 whole entry): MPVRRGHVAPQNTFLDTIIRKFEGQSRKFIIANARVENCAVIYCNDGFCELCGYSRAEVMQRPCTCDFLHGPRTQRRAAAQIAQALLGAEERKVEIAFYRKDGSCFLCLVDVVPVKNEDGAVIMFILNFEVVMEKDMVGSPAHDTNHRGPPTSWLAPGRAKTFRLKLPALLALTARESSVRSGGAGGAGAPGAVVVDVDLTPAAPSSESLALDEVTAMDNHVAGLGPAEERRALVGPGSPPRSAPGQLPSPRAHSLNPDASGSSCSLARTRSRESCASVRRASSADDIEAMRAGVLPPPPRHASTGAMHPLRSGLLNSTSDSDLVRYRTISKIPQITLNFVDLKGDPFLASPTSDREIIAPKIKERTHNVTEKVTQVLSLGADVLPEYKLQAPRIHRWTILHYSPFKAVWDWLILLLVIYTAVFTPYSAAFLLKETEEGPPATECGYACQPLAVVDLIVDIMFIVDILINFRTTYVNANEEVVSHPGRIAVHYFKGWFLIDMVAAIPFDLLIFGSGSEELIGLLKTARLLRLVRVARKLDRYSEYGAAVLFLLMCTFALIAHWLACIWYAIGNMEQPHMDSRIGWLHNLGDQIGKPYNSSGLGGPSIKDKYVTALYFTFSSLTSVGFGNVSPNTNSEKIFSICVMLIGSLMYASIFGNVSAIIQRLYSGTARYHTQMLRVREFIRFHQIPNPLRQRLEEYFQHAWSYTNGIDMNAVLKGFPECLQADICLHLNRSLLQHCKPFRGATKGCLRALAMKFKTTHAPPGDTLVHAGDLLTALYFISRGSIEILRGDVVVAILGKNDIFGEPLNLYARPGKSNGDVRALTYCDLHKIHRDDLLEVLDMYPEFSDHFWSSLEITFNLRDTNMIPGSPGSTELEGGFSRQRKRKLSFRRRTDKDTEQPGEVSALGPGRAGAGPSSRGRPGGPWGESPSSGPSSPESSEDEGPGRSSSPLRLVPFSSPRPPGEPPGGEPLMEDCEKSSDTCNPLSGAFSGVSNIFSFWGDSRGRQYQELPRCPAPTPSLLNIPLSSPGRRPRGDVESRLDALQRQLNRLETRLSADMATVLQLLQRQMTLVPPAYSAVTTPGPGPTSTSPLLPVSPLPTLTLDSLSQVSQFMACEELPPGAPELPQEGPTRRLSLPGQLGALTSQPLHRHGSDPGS

[5] = biological target: Ephrin type-A receptor 4 (Mus musculus, UniProt Q03137); test: inhibitors of EphA4 binding to KYL peptide, primary screen, biochemical, colorimetric, mouse EphA4 (AID 689); assay type: functional
Chain of Ephrin type-A receptor 4 (Q03137 whole entry): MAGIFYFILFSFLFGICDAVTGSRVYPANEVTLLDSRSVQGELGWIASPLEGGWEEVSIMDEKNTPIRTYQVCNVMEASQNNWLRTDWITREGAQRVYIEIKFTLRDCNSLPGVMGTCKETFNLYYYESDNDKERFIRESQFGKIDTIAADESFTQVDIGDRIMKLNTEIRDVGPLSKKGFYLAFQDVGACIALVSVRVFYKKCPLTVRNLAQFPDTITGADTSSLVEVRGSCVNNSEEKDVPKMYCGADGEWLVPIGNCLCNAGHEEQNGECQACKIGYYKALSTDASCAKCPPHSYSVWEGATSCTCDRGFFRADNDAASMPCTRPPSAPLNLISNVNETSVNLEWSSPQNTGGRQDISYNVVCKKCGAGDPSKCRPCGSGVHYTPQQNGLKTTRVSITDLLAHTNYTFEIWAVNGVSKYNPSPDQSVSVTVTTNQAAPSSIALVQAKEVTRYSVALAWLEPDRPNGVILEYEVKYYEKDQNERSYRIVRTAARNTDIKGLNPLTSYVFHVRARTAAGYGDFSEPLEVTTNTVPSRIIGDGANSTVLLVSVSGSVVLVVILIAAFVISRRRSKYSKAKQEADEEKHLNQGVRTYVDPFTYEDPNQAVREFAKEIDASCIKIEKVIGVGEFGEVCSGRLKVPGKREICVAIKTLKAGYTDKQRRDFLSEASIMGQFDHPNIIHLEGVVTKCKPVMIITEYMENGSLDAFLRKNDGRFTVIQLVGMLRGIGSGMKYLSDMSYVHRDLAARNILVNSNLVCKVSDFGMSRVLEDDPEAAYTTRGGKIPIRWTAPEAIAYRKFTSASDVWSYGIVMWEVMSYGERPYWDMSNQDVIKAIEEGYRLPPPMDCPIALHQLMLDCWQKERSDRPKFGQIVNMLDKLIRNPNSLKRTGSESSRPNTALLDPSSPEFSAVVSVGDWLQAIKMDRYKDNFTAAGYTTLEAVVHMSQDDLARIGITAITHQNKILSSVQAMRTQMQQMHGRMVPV

[6] = biological target: Luciferin 4-monooxygenase (Photinus pyralis, UniProt P08659); test: Counter Screen for Luciferase-based Assay Positives. [Related pubchem assays: 620, 618, 411 ]
Chain of Luciferin 4-monooxygenase (P08659 whole entry): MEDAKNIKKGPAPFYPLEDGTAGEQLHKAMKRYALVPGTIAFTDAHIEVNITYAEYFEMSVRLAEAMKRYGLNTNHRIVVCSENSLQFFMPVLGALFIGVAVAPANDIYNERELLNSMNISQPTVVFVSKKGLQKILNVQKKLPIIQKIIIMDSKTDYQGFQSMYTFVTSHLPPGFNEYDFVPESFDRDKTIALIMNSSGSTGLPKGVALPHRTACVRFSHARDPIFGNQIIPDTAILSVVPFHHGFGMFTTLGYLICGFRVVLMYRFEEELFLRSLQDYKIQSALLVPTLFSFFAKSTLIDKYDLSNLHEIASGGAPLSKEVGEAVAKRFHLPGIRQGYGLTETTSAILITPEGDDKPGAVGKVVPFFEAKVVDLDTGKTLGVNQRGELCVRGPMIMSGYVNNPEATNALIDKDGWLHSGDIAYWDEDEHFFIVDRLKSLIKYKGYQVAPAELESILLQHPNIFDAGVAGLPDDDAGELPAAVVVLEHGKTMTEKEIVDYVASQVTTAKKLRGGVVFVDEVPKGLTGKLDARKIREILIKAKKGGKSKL

[7] = tested on: Vero; test: host cell cytotoxicity of antiviral hits, dose response, cytotoxicity control for West Nile virus antiviral project, secondary assay (AID 1650); assay type: functional; conditions: Chlorocebus sabaeus
[8] = biological target: T1, Kappa-type opioid receptor (Homo sapiens, UniProt P41145); assay type: functional
T1 sequence (P41145 whole entry): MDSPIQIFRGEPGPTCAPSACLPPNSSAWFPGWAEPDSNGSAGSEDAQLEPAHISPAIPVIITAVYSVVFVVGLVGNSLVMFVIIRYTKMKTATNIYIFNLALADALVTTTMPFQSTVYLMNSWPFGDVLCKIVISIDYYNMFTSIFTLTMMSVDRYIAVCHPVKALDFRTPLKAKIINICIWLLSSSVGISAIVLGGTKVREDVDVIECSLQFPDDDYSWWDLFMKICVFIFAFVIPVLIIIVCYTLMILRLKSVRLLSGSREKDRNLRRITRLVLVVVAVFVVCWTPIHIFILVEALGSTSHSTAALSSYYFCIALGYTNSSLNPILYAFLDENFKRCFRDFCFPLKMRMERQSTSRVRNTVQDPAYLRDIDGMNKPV

[9] = tested on: HT-1080; test: cytotoxicity in HT1080 fibrosarcoma cells, cell-based, fluorescence readout (AID 620); assay type: functional; conditions: Homo sapiens
[10] = biological target: Beta-galactosidase (Escherichia coli, UniProt Q8VNN2); assay type: functional
Chain of Beta-galactosidase (Q8VNN2 whole entry): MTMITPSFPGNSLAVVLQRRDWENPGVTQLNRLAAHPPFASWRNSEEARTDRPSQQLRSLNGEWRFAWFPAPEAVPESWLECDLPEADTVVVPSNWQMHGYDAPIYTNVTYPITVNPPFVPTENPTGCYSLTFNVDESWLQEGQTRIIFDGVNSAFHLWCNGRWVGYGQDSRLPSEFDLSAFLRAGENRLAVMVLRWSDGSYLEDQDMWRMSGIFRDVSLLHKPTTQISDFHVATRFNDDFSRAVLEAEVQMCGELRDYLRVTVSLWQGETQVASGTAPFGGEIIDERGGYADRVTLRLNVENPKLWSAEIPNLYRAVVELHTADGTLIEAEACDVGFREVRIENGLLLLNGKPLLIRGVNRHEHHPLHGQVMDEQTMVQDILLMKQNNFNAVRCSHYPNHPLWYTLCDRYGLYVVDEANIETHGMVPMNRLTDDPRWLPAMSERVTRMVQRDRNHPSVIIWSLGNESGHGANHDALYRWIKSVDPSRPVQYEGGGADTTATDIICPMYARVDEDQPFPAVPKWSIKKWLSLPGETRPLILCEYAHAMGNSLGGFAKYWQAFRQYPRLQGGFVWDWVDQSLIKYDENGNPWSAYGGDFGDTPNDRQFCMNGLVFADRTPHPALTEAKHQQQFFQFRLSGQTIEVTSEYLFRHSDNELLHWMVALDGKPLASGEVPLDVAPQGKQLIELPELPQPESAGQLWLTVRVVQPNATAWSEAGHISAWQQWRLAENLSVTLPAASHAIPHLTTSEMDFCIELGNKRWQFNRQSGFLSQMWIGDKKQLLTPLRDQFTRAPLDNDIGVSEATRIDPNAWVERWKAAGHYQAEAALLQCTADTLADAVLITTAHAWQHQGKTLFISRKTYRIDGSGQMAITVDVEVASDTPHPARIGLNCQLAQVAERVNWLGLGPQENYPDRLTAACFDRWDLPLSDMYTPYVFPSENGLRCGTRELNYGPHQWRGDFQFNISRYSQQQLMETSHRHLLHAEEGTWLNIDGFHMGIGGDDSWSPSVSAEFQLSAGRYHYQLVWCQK

[11] = biological target: T1, Kappa-type opioid receptor; assay type: functional; remark: listed apart in the source
[12] = cytotoxicity in HEK-293T cells, dose response, cytotoxicity control for TCR NF-kB inhibitor project, luminescence, T-cell screen hits (AID 489026); assay type: functional, cell-based;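 further: cells exposed to compound about 14 hours before the viability readout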
[13] = biological target: Nonstructural protein 1 (Influenza A virus, UniProt Q194T2); assay type: functional, Influenza A virus (A/California/07/2009(H1N1))
Chain of Nonstructural protein 1 (Q194T2 whole entry): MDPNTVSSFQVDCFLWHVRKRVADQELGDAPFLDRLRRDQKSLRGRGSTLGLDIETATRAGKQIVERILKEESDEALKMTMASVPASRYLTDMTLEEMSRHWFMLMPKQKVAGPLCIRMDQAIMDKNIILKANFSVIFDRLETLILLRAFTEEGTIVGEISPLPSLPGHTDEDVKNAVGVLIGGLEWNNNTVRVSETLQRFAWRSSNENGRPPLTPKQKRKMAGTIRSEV

[14] = biological target: T2, Heat shock factor protein 1 (Mus musculus, UniProt P38532); test: HSF1 potentiators in luciferase reporter cells, confirmation, cell-based, NIH3T3, luminescence, dose retest (AID 435004); assay type: functional;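 further: stress induced by proteasome inhibitor MG132 added 30 min after compound; luciferase reporter driven by HSF1 response element in NIH3T3 cells; actives raise luminescence as potentiators of the MG132 stress response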
T2 sequence (P38532 whole entry): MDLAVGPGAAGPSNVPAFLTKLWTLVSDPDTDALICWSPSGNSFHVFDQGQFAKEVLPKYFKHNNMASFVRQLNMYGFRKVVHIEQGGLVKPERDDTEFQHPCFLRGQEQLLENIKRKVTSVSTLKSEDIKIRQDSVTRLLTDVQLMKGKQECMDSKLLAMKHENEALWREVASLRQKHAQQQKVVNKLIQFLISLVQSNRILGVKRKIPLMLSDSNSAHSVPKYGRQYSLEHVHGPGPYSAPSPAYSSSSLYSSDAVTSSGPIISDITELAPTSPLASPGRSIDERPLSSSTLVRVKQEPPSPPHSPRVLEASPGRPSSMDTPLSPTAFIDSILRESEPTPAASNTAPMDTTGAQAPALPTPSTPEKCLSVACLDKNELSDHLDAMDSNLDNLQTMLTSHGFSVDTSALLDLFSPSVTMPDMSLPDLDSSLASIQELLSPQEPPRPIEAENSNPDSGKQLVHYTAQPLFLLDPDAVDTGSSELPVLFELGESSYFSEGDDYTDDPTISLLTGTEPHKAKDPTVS

[15] = tested on: CHO; test: cytotoxicity in TLR9-MyD88 CHO cells, dose response, cytotoxicity control for TLR9-MyD88 binding inhibitor project, cell-based, luminescence (AID 588339); assay type: functional, hamster; conditions: Cricetulus griseus;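 further: CHO cells stably coexpressing TLR9 and MyD88 fusions from primary screen; compound exposure lasted 48 hours before viability readout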
[16] = biological target: Heat shock protein HSP 90-alpha (Homo sapiens, UniProt P07900); assay type: functional, organism-based
[17] = inhibitors of Vif binding to APOBEC3G peptide, primary screen, biochemical, TR-FRET, GST-Vif 1-94, biotin-A3G peptide, dose response retest (AID 1117319); assay type: functional;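 further: TR-FRET signal of purified GST-Vif binding a biotinylated A3G peptide; inhibitors lower the FRET signal by blocking Vif and A3G binding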
[18] = Vero cell cytotoxicity, dose response, cytotoxicity control for Vif-APOBEC3G degradation inhibitor project, Vero cells (AID 1117358); assay type: functional; conditions: Human immunodeficiency virus 1, Vero

Chain of 5-hydroxytryptamine receptor 1A (P08908 whole entry): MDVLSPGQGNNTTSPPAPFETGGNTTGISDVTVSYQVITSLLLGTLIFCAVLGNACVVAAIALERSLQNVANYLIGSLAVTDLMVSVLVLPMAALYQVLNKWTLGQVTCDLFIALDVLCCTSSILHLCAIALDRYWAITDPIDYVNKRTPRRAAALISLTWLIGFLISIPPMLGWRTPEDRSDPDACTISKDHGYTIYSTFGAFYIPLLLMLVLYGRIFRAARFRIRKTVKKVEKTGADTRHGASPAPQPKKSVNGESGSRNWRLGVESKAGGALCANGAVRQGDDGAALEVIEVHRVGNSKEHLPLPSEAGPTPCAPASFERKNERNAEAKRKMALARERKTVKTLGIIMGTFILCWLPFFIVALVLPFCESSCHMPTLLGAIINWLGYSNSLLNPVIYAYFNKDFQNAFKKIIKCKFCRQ

Cc1cc(C(C)(C)C)cc(C)c1CC1=NCCN1 [XYLOMETAZOLINE HYDROCHLORIDE]
EC50 [1]: 0.129 µM (active)
IC50 [2]: > 119 µM (inactive)
IC50 [3]: 29.7 µM (inactive)
AC50 [4]: 14.1 µM (inconclusive)

Cc1cc(C)c2nc(N3CCCN(C(=O)c4ccco4)CC3)c(C#N)cc2c1
IC50 [5]: 16.6 µM (active)

O=S1(=O)Nc2c(ccc3cccnc23)-c2ccccc21
EC50 [6]: 2.82 µM (active)
CC50 [7]: 4.21 µM (active)
IC50 [8]: 1.3 µM (active)
EC50 [9]: > 50 µM (not active)
EC50 [10]: > 31.5 µM (inactive)
IC50 [11]: > 32 µM
IC50 [12]: > 80 µM (inactive)
IC50 [13]: 3.63 µM (active)
EC50 [14]: 2.76 µM (active)
IC50 [15]: 1.77 µM (active)
AC50 [16]: < 0.195 µM (active)
IC50 [17]: > 100 µM (active)
CC50 [18]: 13.8 µM (active)
